According to US8846636B2, “Nucleoside analogues with quaternary carbon stereogenic centers and methods of use” (LCB Pharma Inc., priority 2008, dated 2014):

How the values were obtained:
Type in all cases: cell-based
MCF7 = experiment: MTT cell proliferation assay, MCF7; details: MCF7 cell line (mammary gland; breast)
Protocol: (§1) The antiviral and antitumor activities of the compounds of the invention were evaluated by a cellular proliferation assay. The MTT [3-(4,5-dimethylthiazol-2-yl)-2,5-diphenyltetrazolium bromide] assay, first described by Mosmann (Mosmann T., “Rapid colorimetric assay for cellular growth and survival: application to proliferation and cytotoxicity assays,” J. Immunol. Methods 1983 Dec. 16; 65(1-2):55-63, and incorporated by reference in its entirety) is based on the ability of a mitochondrial dehydrogenase enzyme from viable cells to cleave the tetrazolium rings of the pale yellow MTT. The cleavage reaction form a dark blue formazan crystals which is largely impermeable to cell membranes and accumulation within healthy cells. Solubilisation of the cells by the addition of a detergent liberates and solubilizes the crystals. The number of surviving cells is directly proportional to the level of the formazan product created. The color can then be quantified using a simple colorimetric assay. The results can be read on a multiwell scanning spectrophotometer (ELISA reader).
(§2) In Tables 1 and 2, IC50 values are presented for various cell lines in micromolar units (μm), “Gemci” is Gemcitabine, and “5-FU” is 5-fluorouracil.

HL-60 = experiment: MTT cell proliferation assay, HL-60; details: HL-60 cell line (acute promyelocytic leukemia)
Protocol: as §1, §2

MOLT-4 = experiment: MTT cell proliferation assay, MOLT-4
Protocol: as §1, §2

Colo 829 = experiment: MTT cell proliferation assay, Colo 829; details: Colo 829 cell line (skin)
Protocol: as §1, §2

DLD-1 = experiment: MTT cell proliferation assay, DLD-1; details: DLD-1 cell line (colon)
Protocol: as §1, §2

22Rv1 = experiment: MTT cell proliferation assay, 22Rv1; details: 22Rv1 cell line (prostate)
Protocol: as §1, §2

PFSK-1 = experiment: MTT cell proliferation assay, PFSK-1; details: PFSK-1 cell line (brain)
Protocol: as §1, §2

ZR-75-1 = experiment: MTT cell proliferation assay, ZR-75-1; details: ZR-75-1 cell line (mammary gland; breast)
Protocol: as §1, §2

OVCAR3 = experiment: MTT cell proliferation assay, OVCAR3; details: OVCAR3 cell line (ovary)
Protocol: as §1, §2

BxPC-3 = experiment: MTT cell proliferation assay, BxPC-3; details: BxPC-3 cell line (pancreas)
Protocol: as §1, §2

NCI H2052 = experiment: MTT cell proliferation assay, NCI H2052; details: NCI H2052 cell line (tumor stage 4 derived from pleural effusion)
Protocol: as §1, §2

HCC1143 = experiment: MTT cell proliferation assay, HCC1143; details: HCC1143 cell line (mammary gland; breast)
Protocol: as §1, §2

NCI H1395 = experiment: MTT cell proliferation assay, NCI H1395
Protocol: as §1, §2

1A6 = experiment: MTT cell proliferation assay, 1A6; details: 1A6 cell line (urinary bladder)
Protocol: as §1, §2

786-O = experiment: MTT cell proliferation assay, 786-O; details: 786-O cell line (kidney)
Protocol: as §1, §2

HCT 116 = experiment: MTT cell proliferation assay, HCT 116; details: HCT 116 cell line (colon)
Protocol: as §1, §2

[1] = Homo sapiens, MOLT-4, MOLT-4 cell line (acute lymphoblastic leukemia)
[2] = Homo sapiens, NCI-H1395, NCI H1395 cell line (lung)

| IC50 (MCF7; Homo sapiens) [µM] | IC50 (HL-60; Homo sapiens) [µM] | IC50 (MOLT-4; [1]) [µM] | IC50 (Colo 829; Homo sapiens) [µM] | IC50 (DLD-1; Homo sapiens) [µM] | IC50 (22Rv1; Homo sapiens) [µM] | IC50 (OVCAR3; Homo sapiens, OVCAR-3) [µM] | IC50 (BxPC-3; Homo sapiens) [µM] | IC50 (HCC1143; Homo sapiens) [µM] | IC50 (786-O; Homo sapiens, 786-0) [µM] | IC50 (HCT 116; Homo sapiens) [µM] | Compound | IC50 (1A6) [µM] | IC50 (PFSK-1; Homo sapiens) [µM] | IC50 (ZR-75-1; Homo sapiens) [µM] | IC50 (NCI H2052; Homo sapiens) [µM] | IC50 (NCI H1395; [2]) [µM] | also measured |
| --- | --- | --- | --- | --- | --- | --- | --- | --- | --- | --- | --- | --- | --- | --- | --- | --- | --- |
| – | – | – | – | – | – | – | – | – | – | – | ((2S,3S,4R,5R)-5-(2-amino-6-chloro-9H-purin-9-yl)-4-hydroxy-3-methyltetrahydrofuran-2,3-diyl)dimethanol (A), ((2S,3S,4R,5R)-5-(6-amino-2-chloro-9H-purin-9-yl)-4-hydroxy-3-methyltetrahydrofuran-2,3-diyl)dimethanol (B) [LCB-1094] | > 500 | – | – | – | – | IC50 (MCF7): > 500 µM; IC50 (HL-60): > 500 µM; IC50 (MOLT-4; MOLT-4 cell line (acute lymphoblastic leukemia)): > 500 µM; IC50 (Colo 829): > 500 µM; IC50 (DLD-1): > 500 µM; IC50 (22Rv1): > 500 µM; IC50 (PFSK-1): > 500 µM; IC50 (ZR-75-1): > 500 µM; IC50 (OVCAR3): > 500 µM; IC50 (BxPC-3): > 500 µM; IC50 (NCI H2052): > 500 µM; IC50 (HCC1143): > 500 µM; IC50 (NCI H1395; NCI H1395 cell line (lung)): > 500 µM; IC50 (786-O): > 500 µM; IC50 (HCT 116): > 500 µM |
| 40 | 25 | 20 | 170 | 470 | 50 | 35 | 220 | 340 | 110 | 25 | O=c1[nH]cc(F)c(=O)[nH]1 [5-FU, 5-fluorouracil, reference compound] | 300 | 460 | > 500 | > 500 | > 500 | – |
| > 500 | > 500 | > 500 | > 500 | > 500 | > 500 | > 500 | > 500 | > 500 | > 500 | > 500 | C[C@@]1(CO)[C@@H](CO)O[C@@H](n2cc(F)c(N)nc2=O)[C@@H]1O [LCB-1096, 4-amino-5-fluoro-1-((2R,3R,4S,5S)-3-hydroxy-4,5-bis(hydroxymethyl)-4-methyltetrahydrofuran-2-yl)pyrimidin-2(1H)-one] | > 500 | > 500 | > 500 | > 500 | > 500 | – |
| > 500 | > 500 | > 500 | > 500 | > 500 | – | – | – | > 500 | > 500 | – | CC1(CO)C(O)C(n2cc(F)c(N)nc2=O)O[C@@H]1CO (stereo partly drawn) [LCB-1082, 4-amino-5-fluoro-1-((2S,3S,4S,5S)-3-hydroxy-4,5-bis(hydroxymethyl)-4-methyltetrahydrofuran-2-yl)pyrimidin-2(1H)-one; 4-amino-5-fluoro-1-((2R,3R,4S,5S)-3-hydroxy-4,5-bis(hydroxymethyl)-4-methyltetrahydrofuran-2-yl)pyrimidin-2(1H)-one] | > 500 | > 500 | > 500 | > 500 | > 500 | – |
| 430 | > 500 | > 500 | 460 | > 500 | > 500 | > 500 | > 500 | > 500 | > 500 | > 500 | C[C@@]1(CO)[C@@H](CO)O[C@@H](n2ccc(N)nc2=O)[C@@H]1O [LCB-1095, 4-amino-1-((2R,3R,4S,5S)-3-hydroxy-4,5-bis(hydroxymethyl)-4-methyltetrahydrofuran-2-yl)pyrimidin-2(1H)-one] | > 500 | > 500 | > 500 | > 500 | > 500 | – |
| > 500 | > 500 | > 500 | > 500 | > 500 | > 500 | > 500 | > 500 | > 500 | > 500 | > 500 | CC1(CO)C(O)[C@H](n2cnc3c(=O)nc(N)[nH]c(=O)c32)O[C@@H]1CO (stereo in doubt) [LCB-1097, 6-amino-1-((2R,3R,4S,5S)-3-hydroxy-4,5-bis(hydroxymethyl)-4-methyltetrahydrofuran-2-yl)imidazo[4,5-e][1,3]diazepine-4,8(1H,5H)-dione] | > 500 | > 500 | 210 | > 500 | > 500 | – |
| > 500 | < 0.5 | < 0.5 | < 0.5 | > 500 | > 500 | 5 | < 0.5 | 400 | > 500 | < 0.5 | Nc1ccn([C@@H]2O[C@H](CO)[C@@H](O)C2(F)F)c(=O)n1 [Gemci., Gemcitabine, reference compound] | 5 | > 500 | > 500 | > 500 | < 0.5 | – |
| > 500 | > 500 | – | > 500 | > 500 | – | > 500 | > 500 | > 500 | > 500 | > 500 | C[C@]1(CO)C(O)[C@H](n2ccc(N)nc2=O)O[C@@H]1CO (stereo partly shown) [compound 1056] | > 500 | > 500 | > 500 | > 500 | 440 | – |
| > 100 | > 100 | > 100 | > 100 | > 100 | > 100 | > 100 | 90 | > 100 | > 100 | > 100 | CCOC(=O)C1(C)[C@@H](CO)O[C@H](n2cnc3c(NN)nc(NN)nc32)[C@@H]1O (stereo partly shown) [LCB-1086] | > 100 | 98 | > 100 | – | > 100 | – |
| > 500 | > 500 | > 500 | > 500 | > 500 | – | – | – | > 500 | > 500 | – | CC12C(=O)OC[C@H]1O[C@@H](n1cc(F)c(N)nc1=O)C2O (mixture of isomers) [LCB-1080, 4-amino-5-fluoro-1-((2R,3R,3αR,6αS)-3-hydroxy-3α-methyl-4-oxohexahydrofuro[3,4-β]furan-2-yl)pyrimidin-2(1H)-one] | > 500 | > 500 | > 500 | > 500 | > 500 | – |
| > 500 | > 500 | > 500 | > 500 | > 500 | > 500 | > 500 | > 500 | > 500 | > 500 | > 500 | C[C@]1(C(N)=O)[C@H](O)[C@@H](n2ccc(N)nc2=O)O[C@@H]1CO [LCB-1087, (2S,3S,4S,5S)-5-(4-amino-2-oxopyrimidin-1(2H)-yl)-4-hydroxy-2-(hydroxymethyl)-3-methyltetrahydrofuran-3-carboxamide] | > 500 | > 500 | > 500 | – | > 500 | – |
| 280 | 250 | 260 | – | 440 | – | 280 | 160 | 480 | 460 | 410 | CC12C(=O)OC[C@H]1O[C@@H](n1ccc(N)nc1=O)C2O (mixture of isomers) [LCB-1079, 4-amino-1-((2R,3R,3αR,6αS)-3-hydroxy-3α-methyl-4-oxohexahydrofuro[3,4-β]furan-2-yl)pyrimidin-2(1H)-one] | 350 | 130 | 380 | 310 | > 500 | – |
